Test results taken from patent publication US8530490B2, “Uracil compound or salt thereof having human deoxyuridine triphosphatase inhibitory activity” (Taiho Pharmaceutical Co., Ltd., priority 2008, dated 2013).

target: human dUTPase (Homo sapiens (Human), UniProt P33316); test: Human dUTPase inhibitory effect: production of [5-3H]dUMP from [5-3H]dUTP, measured by HPLC with flow scintillation; type: biochemical; conditions: [5-3H]dUMP production from [5-3H]dUTP, 37° C., 15 minutes
Method in brief: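 E. coli-expressed purified human dUTPase reacted with 1 μM dUTP stock containing [5-3H]dUTP in Tris pH 7.4, MgCl2, 2-mercaptoethanol and albumin, 15 min at 37° C; stopped by 1 min at 100° C. [5-3H]dUMP formed was separated by reversed-phase ion-pair HPLC and quantified by flow scintillation versus water control.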

Chain of human dUTPase (P33316 94-252): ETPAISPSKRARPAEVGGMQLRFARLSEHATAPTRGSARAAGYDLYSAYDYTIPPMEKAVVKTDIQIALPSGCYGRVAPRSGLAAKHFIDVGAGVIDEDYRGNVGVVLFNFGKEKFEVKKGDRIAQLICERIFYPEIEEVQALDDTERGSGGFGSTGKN

Row | IC50 | Compound
1 | 6.29 µM | CC(C)(CCCOCn1ccc(=O)[nH]c1=O)NS(=O)(=O)c1cccc(OC(F)F)c1 [Example 145, 3-(difluoromethoxy)-N-(5-((2,4-dioxo-3,4-dihydropyrimidin-1(2H)-yl)methoxy)-2-methylpentan-2-yl)benzenesulfonamide]
2 | 8.68 µM | CC(C)(CCCOCn1ccc(=O)[nH]c1=O)NS(=O)(=O)c1cccc(OC(=O)c2ccccc2)c1 [Example 146, 3-(N-(5-((2,4-dioxo-3,4-dihydropyrimidin-1(2H)-yl)methoxy)-2-methylpentan-2-yl)sulfamoyl)phenylbenzoate]
3 | 9.5 µM | CN(C)c1cccc2c(S(=O)(=O)NC(C)(C)CCCOCn3ccc(=O)[nH]c3=O)cccc12 [Example 147, 5-(dimethylamino)-N-(5-((2,4-dioxo-3,4-dihydropyrimidin-1(2H)-yl)methoxy)-2-methylpentan-2-yl)naphthalene-1-sulfonamide]
4 | 2.77 µM | CC(C)(CCCOCn1ccc(=O)[nH]c1=O)NS(=O)(=O)c1cccc(Cl)c1 [Example 148, 3-chloro-N-(5-((2,4-dioxo-3,4-dihydropyrimidin-1(2H)-yl)methoxy)-2-methylpentan-2-yl)benzenesulfonamide]
5 | 7.65 µM | CC(C)(CCCOCn1ccc(=O)[nH]c1=O)NS(=O)(=O)c1cc(Br)c(Br)s1 [Example 149, 4,5-dibromo-N-(5-((2,4-dioxo-3,4-dihydropyrimidin-1(2H)-yl)methoxy)-2-methylpentan-2-yl)thiophene-2-sulfonamide]
6 | 5.67 µM | CC(C)(CCCOCn1ccc(=O)[nH]c1=O)NS(=O)(=O)c1cccc(F)c1 [Example 150, N-(5-((2,4-dioxo-3,4-dihydropyrimidin-1(2H)-yl)methoxy)-2-methylpentan-2-yl)-3-fluorobenzenesulfonamide]
7 | 5.7 µM | Cc1ccccc1S(=O)(=O)NC(C)(C)CCCOCn1ccc(=O)[nH]c1=O [Example 151, N-(5-((2,4-dioxo-3,4-dihydropyrimidin-1(2H)-yl)methoxy)-2-methylpentan-2-yl)-2-methylbenzenesulfonamide]
8 | 8.82 µM | Cc1cccc(S(=O)(=O)NC(C)(C)CCCOCn2ccc(=O)[nH]c2=O)c1 [Example 154, N-(5-((2,4-dioxo-3,4-dihydropyrimidin-1(2H)-yl)methoxy)-2-methylpentan-2-yl)-3-methylbenzenesulfonamide]
9 | 8.94 µM | CC(C)(CCCOCn1ccc(=O)[nH]c1=O)NS(=O)(=O)c1ccccc1Br [Example 156, 2-bromo-N-(5-((2,4-dioxo-3,4-dihydropyrimidin-1(2H)-yl)methoxy)-2-methylpentan-2-yl)benzenesulfonamide]
10 | 9.48 µM | CC(C)(CCCOCn1ccc(=O)[nH]c1=O)NS(=O)(=O)c1ccccc1 [Example 158, N-(5-((2,4-dioxo-3,4-dihydropyrimidin-1(2H)-yl)methoxy)-2-methylpentan-2-yl)benzenesulfonamide]
11 | 0.26 µM | CC(C)(CCCOCn1ccc(=O)[nH]c1=O)NS(=O)(=O)c1cccc(OCC2CC2)c1 [Example 159, 3-(cyclopropylmethoxy)-N-(5-((2,4-dioxo-3,4-dihydropyrimidin-1(2H)-yl)methoxy)-2-methylpentan-2-yl)benzenesulfonamide]
12 | 0.14 µM | CC(C)(CCCOCn1ccc(=O)[nH]c1=O)NS(=O)(=O)c1cccc(OCC(F)F)c1 [Example 160, 3-(2,2-difluoroethoxy)-N-(5-((2,4-dioxo-3,4-dihydropyrimidin-1(2H)-yl)methoxy)-2-methylpentan-2-yl)benzenesulfonamide]
13 | 0.24 µM | CC(C)(CCCOCn1ccc(=O)[nH]c1=O)NS(=O)(=O)c1cccc(OC2CCCC2)c1 [Example 161, 3-(cyclopentyloxy)-N-(5-((2,4-dioxo-3,4-dihydropyrimidin-1(2H)-yl)methoxy)-2-methylpentan-2-yl)benzenesulfonamide]
14 | 3.96 µM | C/C=C\c1cccc(S(=O)(=O)NC(C)(C)CCCOCn2ccc(=O)[nH]c2=O)c1 [Example 162, (Z)—N-(5-((2,4-dioxo-3,4-dihydropyrimidin-1(2H)-yl)methoxy)-2-methylpentan-2-yl)-3-(prop-1-enyl)benzenesulfonamide]
15 | 6.02 µM | O=c1ccn(COCCCC2(NS(=O)(=O)c3ccccc3)CC2)c(=O)[nH]1 [Example 164, N-(1-(3-((2,4-dioxo-3,4-dihydropyrimidin-1(2H)-yl)methoxy)propyl)cyclopropyl)benzenesulfonamide]
16 | 1.86 µM | COc1cccc(S(=O)(=O)NC2(CCCOCn3ccc(=O)[nH]c3=O)CC2)c1 [Example 165, N-(1-(3-((2,4-dioxo-3,4-dihydropyrimidin-1(2H)-yl)methoxy)propyl)cyclopropyl)-3-methoxybenzenesulfonamide]
17 | 0.64 µM | O=c1ccn(COCCCCNS(=O)(=O)c2cccc(OCC3CC3)c2)c(=O)[nH]1 [Example 166, 3-(cyclopropylmethoxy)-N-(4-((2,4-dioxo-3,4-dihydropyrimidin-1(2H)-yl)methoxy)butyl)benzenesulfonamide]
18 | 0.13 µM | O=c1ccn(COCCCC2(NS(=O)(=O)c3cccc(OCC4CC4)c3)CC2)c(=O)[nH]1 [Example 167, 3-(cyclopropylmethoxy)-N-(1-(3-((2,4-dioxo-3,4-dihydropyrimidin-1(2H)-yl)methoxy)propyl)cyclopropyl)benzenesulfonamide]
19 | 2.57 µM | COc1cccc(S(=O)(=O)NC(C)(C)c2ccc(Cn3ccc(=O)[nH]c3=O)cc2)c1 [Example 177, N-(2-(4-((2,4-dioxo-3,4-dihydropyrimidin-1(2H)-yl)methyl)phenyl)propan-2-yl)-3-methoxybenzenesulfonamide]
20 | 0.24 µM | CC(C)(NS(=O)(=O)c1cccc(OCC2CC2)c1)c1ccc(Cn2ccc(=O)[nH]c2=O)cc1 [Example 178, 3-(cyclopropanemethoxy)-N-(2-(4-((2,4-dioxo-3,4-dihydropyrimidin-1(2H)-yl)methyl)phenyl)propan-2-yl)benzenesulfonamide]
21 | 0.11 µM | CC(C)(NS(=O)(=O)c1cccc(OCC2CC2)c1)c1ccc(Cn2ccc(=O)[nH]c2=O)nc1 [Example 179, 3-(cyclopropanemethoxy)-N-(2-(6-((2,4-dioxo-3,4-dihydropyrimidin-1(2H)-yl)methyl)pyridin-3-yl)propan-2-yl)benzenesulfonamide]

Row | Compound | IC50
22 | CC(C)(NS(=O)(=O)c1ccccc1)c1ccc(Cn2ccc(=O)[nH]c2=O)cc1 [Example 176, N-(2-(4-((2,4-dioxo-3,4-dihydropyrimidin-1(2H)-yl)methyl)phenyl)propan-2-yl)benzenesulfonamide] | 2.69 µM
